Test results reported in patent US20220080026A1, “FORMULATIONS” (Sublimity Therapeutics Limited, priority 2013, published 2022).
Structures can show the parent of a compound that is named as a salt.

Conditions: heated at 60-70° C.

solubility in the aqueous phase of the formulation: fully soluble
Structure (SMILES): NNc1nncc2ccccc12 [Hydralazine HCl]
